Data taken from ChEMBL document CHEMBL1201862, “PubChem BioAssay data set” (2004).
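Protocol summary: plate cells (96-well), add compound at 5 concentrations, incubate 48 h, interpolate endpoints linearly. GI50: concentration for 50% inhibition of growth.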 Calls of active or inactive are those of the source. Rule as the data show it: active = GI50 up to about 1.1 µM and inactive = higher.

Columns and labels:
Test in all cases: NCI-60 cell line screen, 48 h
CAKI-1 = test system: CAKI-1
COLO 205 = test system: COLO 205
HCT-15 = test system: HCT-15
HL-60 = test system: HL-60
HOP-92 = test system: HOP-92
HT-29 = test system: HT-29
K562 = test system: K562
KM12 = test system: KM12
LOX IMVI = test system: LOX IMVI
M14 = test system: M14
MDA-MB-231 = test system: MDA-MB-231
MDA-MB-435 = test system: MDA-MB-435
OVCAR-5 = test system: OVCAR-5
PC-3 = test system: PC-3
SK-OV-3 = test system: SK-OV-3
SNB-75 = test system: SNB-75
T47D = test system: T47D
U-251 = test system: U-251
SK-MEL-2 = test system: SK-MEL-2
SR = test system: SR

SMILES	GI50 (CAKI-1)	GI50 (COLO 205)	GI50 (HCT-15)	GI50 (HL-60)	GI50 (HOP-92)	GI50 (HT-29)	GI50 (K562)	GI50 (KM12)	GI50 (LOX IMVI)	GI50 (M14)	GI50 (MDA-MB-231)	GI50 (MDA-MB-435)	GI50 (OVCAR-5)	GI50 (PC-3)	GI50 (SK-OV-3)	GI50 (SNB-75)	GI50 (T47D)	GI50 (U-251)	GI50 (SK-MEL-2)	GI50 (SR)
CC(C)(C)CC(C)(C)c1cc(O)c(O)c(CN2CCCCC2)c1	14.2 µM (inactive)	12.7 µM (inactive)	4.01 µM	13.3 µM (inactive)	17.5 µM (inactive)	5.69 µM (inactive)	4.25 µM (inactive)	17.5 µM (inactive)	12 µM (inactive)	15.6 µM (inactive)	17.7 µM (inactive)	16.9 µM (inactive)	17.4 µM (inactive)	13.9 µM (inactive)	19.8 µM (inactive)	17.7 µM (inactive)	11.6 µM (inactive)	11.9 µM (inactive)		
CCOC(=O)C(O)(NC(C)=O)C(F)(F)F (configuration not stated)	> 100 µM (inactive)	> 100 µM (inactive)	> 100 µM	43.8 µM (inactive)	26.2 µM (inactive)	> 100 µM (inactive)	> 100 µM (inactive)	> 100 µM (inactive)	> 100 µM (inactive)	> 100 µM (inactive)		> 100 µM (inactive)	> 100 µM (inactive)	> 100 µM (inactive)	> 100 µM (inactive)	> 100 µM (inactive)	> 100 µM (inactive)	> 100 µM (inactive)	> 100 µM (inactive)	7.24 µM (inactive)
COC(=O)C1=C(C(=O)OC)SC2(S1)C1=C(CCC1)SC(C(=O)OC)=C2C(=O)OC	5.87 µM (inactive)	13.8 µM (inactive)	6.08 µM	6.76 µM (inactive)	10.2 µM (inactive)	4.58 µM (inactive)	3.09 µM (inactive)	15.1 µM (inactive)	3.33 µM (inactive)	18.3 µM (inactive)	18.8 µM (inactive)	12.9 µM (inactive)	19.4 µM (inactive)	11.2 µM (inactive)	16.9 µM (inactive)		9.25 µM (inactive)	15.6 µM (inactive)	18.8 µM (inactive)	
COc1ccc2c(c1)CC[C@@H]1[C@@H]2CC[C@]2(C)C(=O)/C(=C/c3ccc(O)c(OC)c3)C[C@@H]12	67.8 µM (inactive)	> 100 µM (inactive)	28.3 µM	47.8 µM (inactive)	> 100 µM (inactive)	51.8 µM (inactive)	50.5 µM (inactive)		36.9 µM (inactive)	35.6 µM (inactive)	37.2 µM (inactive)	32 µM (inactive)	76 µM (inactive)	39.1 µM (inactive)	> 100 µM (inactive)		96.6 µM (inactive)	51.3 µM (inactive)	69.2 µM (inactive)	32.2 µM (inactive)
CCOC(=O)c1sc2nc(SC)nc3c2c1NCN3C	22.5 µM (inactive)	> 100 µM (inactive)	> 100 µM		11.5 µM (inactive)	> 100 µM (inactive)		> 100 µM (inactive)	36 µM (inactive)	76.9 µM (inactive)	28.1 µM (inactive)	> 100 µM (inactive)	36.1 µM (inactive)	> 100 µM (inactive)	16.1 µM (inactive)	5.78 µM (inactive)	6.79 µM (inactive)	20.6 µM (inactive)	86.1 µM (inactive)	
Cc1ccc(-c2n[nH]c(=O)n2N2C(=O)c3ccccc3C2=O)cc1	> 100 µM (inactive)		> 100 µM	> 100 µM (inactive)		> 100 µM (inactive)	> 100 µM (inactive)	> 100 µM (inactive)	> 100 µM (inactive)	> 100 µM (inactive)	> 100 µM (inactive)	> 100 µM (inactive)	> 100 µM (inactive)	> 100 µM (inactive)		> 100 µM (inactive)	68.9 µM (inactive)	> 100 µM (inactive)	> 100 µM (inactive)	> 100 µM (inactive)
O=C(Nc1ccccc1)N1CC(CN2CCN(c3ccccc3)CC2)OC1=O (configuration not stated)	> 100 µM (inactive)	> 100 µM (inactive)	> 100 µM	> 100 µM (inactive)	> 100 µM (inactive)	> 100 µM (inactive)	> 100 µM (inactive)	> 100 µM (inactive)	> 100 µM (inactive)	> 100 µM (inactive)	> 100 µM (inactive)	> 100 µM (inactive)	> 100 µM (inactive)	> 100 µM (inactive)	> 100 µM (inactive)		> 100 µM (inactive)	> 100 µM (inactive)	> 100 µM (inactive)	> 100 µM (inactive)
CC1C=CN(N(C)C)C2=C1C(=O)c1cnccc1C2=O (configuration not stated)	0.108 µM (active)	1.12 µM (inactive)	0.231 µM	1.47 µM (inactive)	2.07 µM (inactive)	0.617 µM (active)	0.205 µM (active)	1.24 µM (inactive)	0.129 µM (active)	0.424 µM (active)		0.186 µM (active)	1.37 µM (inactive)	1.49 µM (inactive)	0.682 µM (active)	0.315 µM (active)	1.83 µM (inactive)	0.417 µM (active)	1.63 µM (inactive)	0.0156 µM (active)
O=C1C[C@@]23CCC4(CC2CCC[C@H]3O1)OCCO4 (some centres not stated)		> 100 µM (inactive)	> 100 µM	> 100 µM (inactive)	> 100 µM (inactive)	> 100 µM (inactive)	> 100 µM (inactive)	> 100 µM (inactive)	> 100 µM (inactive)	> 100 µM (inactive)	> 100 µM (inactive)	> 100 µM (inactive)	> 100 µM (inactive)	> 100 µM (inactive)	> 100 µM (inactive)		> 100 µM (inactive)	> 100 µM (inactive)	> 100 µM (inactive)	> 100 µM (inactive)
COC(=O)C1CC2CC1C1C2SC(F)(F)C1(F)F (configuration not stated)	> 100 µM (inactive)	> 100 µM (inactive)	> 100 µM					> 100 µM (inactive)	> 100 µM (inactive)	> 100 µM (inactive)	> 100 µM (inactive)	> 100 µM (inactive)	> 100 µM (inactive)	> 100 µM (inactive)	> 100 µM (inactive)	> 100 µM (inactive)	> 100 µM (inactive)	> 100 µM (inactive)	> 100 µM (inactive)	> 100 µM (inactive)
O=S(=O)(O)c1ccc2c(/N=N/c3ccc(Sc4ccc(/N=N/c5c(O)ccc6cc(S(=O)(=O)O)ccc56)cc4)cc3)c(O)ccc2c1	> 100 µM (inactive)	> 100 µM (inactive)	> 100 µM	> 100 µM (inactive)	> 100 µM (inactive)	> 100 µM (inactive)	> 100 µM (inactive)	> 100 µM (inactive)		> 100 µM (inactive)	> 100 µM (inactive)	> 100 µM (inactive)	> 100 µM (inactive)	> 100 µM (inactive)	> 100 µM (inactive)		> 100 µM (inactive)	> 100 µM (inactive)	> 100 µM (inactive)	> 100 µM (inactive)
CSc1c(C#N)c(=O)n(N)c2[nH]nc(C)c12	45.2 µM (inactive)	> 100 µM (inactive)	> 100 µM	> 100 µM (inactive)		> 100 µM (inactive)	> 100 µM (inactive)	> 100 µM (inactive)	> 100 µM (inactive)		> 100 µM (inactive)	> 100 µM (inactive)		> 100 µM (inactive)	> 100 µM (inactive)	> 100 µM (inactive)	> 100 µM (inactive)	> 100 µM (inactive)	> 100 µM (inactive)	> 100 µM (inactive)
COC(=O)CNCC1OC2OC(C)(C)OC2C1N=[N+]=[N-] (configuration not stated)	> 100 µM (inactive)	> 10 µM (inactive)	> 100 µM	> 100 µM (inactive)	> 100 µM (inactive)	> 100 µM (inactive)	> 100 µM (inactive)	> 100 µM (inactive)	> 100 µM (inactive)			> 100 µM (inactive)	> 100 µM (inactive)	> 100 µM (inactive)	> 100 µM (inactive)	> 100 µM (inactive)	> 100 µM (inactive)	> 100 µM (inactive)	> 100 µM (inactive)	> 100 µM (inactive)
CSc1nncc2[nH]c(C)nc12	> 100 µM (inactive)	> 100 µM (inactive)	> 100 µM	> 100 µM (inactive)		> 100 µM (inactive)	> 100 µM (inactive)	> 100 µM (inactive)	> 100 µM (inactive)	> 100 µM (inactive)	> 100 µM (inactive)	> 100 µM (inactive)	> 100 µM (inactive)	> 100 µM (inactive)	> 100 µM (inactive)	> 100 µM (inactive)	> 100 µM (inactive)	> 100 µM (inactive)	> 100 µM (inactive)	
CC[C@@H]1CC[C@@H]2[C@H](CC[C@]3(C)[C@@H](OC(C)=O)CC[C@@H]23)[C@H]1COC(C)=O	29 µM (inactive)	19.1 µM (inactive)	23.9 µM	20.7 µM (inactive)	29 µM (inactive)	18.2 µM (inactive)	17.6 µM (inactive)	24.3 µM (inactive)	17.4 µM (inactive)	25.4 µM (inactive)	20 µM (inactive)	22.5 µM (inactive)	20.1 µM (inactive)	30.1 µM (inactive)	35.2 µM (inactive)	40.6 µM (inactive)	32.1 µM (inactive)	19.5 µM (inactive)	16.4 µM (inactive)	
O=C(O)CC(O)(C(=O)O)C(O)C(=O)O (configuration not stated)	> 1000 µM (inactive)	> 1000 µM (inactive)	> 1000 µM	> 1000 µM (inactive)		> 1000 µM (inactive)	> 1000 µM (inactive)	> 1000 µM (inactive)	440 µM (inactive)	> 1000 µM (inactive)	> 1000 µM (inactive)	826 µM (inactive)	> 1000 µM (inactive)	> 1000 µM (inactive)	> 1000 µM (inactive)	> 1000 µM (inactive)	> 1000 µM (inactive)	> 1000 µM (inactive)	> 1000 µM (inactive)	
